Measurements taken from patent US9884842B2, “Combretastatin analogs” (The Board of Trustees of the University of Arkansas, priority 2013, dated 2018).

Columns and labels:
K-562 = test: NCI growth inhibition and cytotoxicity screen, Leukemia panel; conditions: Homo sapiens; for GI50: K562; for CC50: K562, read-out: LC50
HL-60(TB) = test: cells; conditions: Homo sapiens; for GI50: HL-60; for CC50: HL-60, read-out: LC50
MDA-MB-231/ATCC = test: NCI growth inhibition and cytotoxicity screen, Breast Cancer panel; conditions: Homo sapiens; for GI50: MDA-MB-231; for CC50: MDA-MB-231, read-out: LC50
SF-539 = test: NCI growth inhibition and cytotoxicity screen, CNS Cancer panel; conditions: Homo sapiens; for GI50: SF-539; for CC50: SF-539, read-out: LC50
786-0 = test: NCI growth inhibition and cytotoxicity screen, Renal Cancer panel; conditions: Homo sapiens; for GI50: 786-0; for CC50: 786-0, read-out: LC50
COLO 205 = test: NCI growth inhibition and cytotoxicity screen, Colon Cancer panel; conditions: Homo sapiens; for GI50: COLO 205; for CC50: COLO 205, read-out: LC50
MCF7 = test: NCI growth inhibition and cytotoxicity screen, Breast Cancer panel; conditions: Homo sapiens; for GI50: MCF7; for CC50: MCF7, read-out: LC50
BT-549 = test: as above; conditions: Homo sapiens; for GI50: BT-549; for CC50: BT-549, read-out: LC50
T-47D = test: as above; conditions: Homo sapiens, T47D; for CC50: read-out: LC50
KM12 = test: NCI growth inhibition and cytotoxicity screen, Colon Cancer panel; conditions: Homo sapiens; for GI50: KM12; for CC50: KM12, read-out: LC50
IGROV1 = test: NCI growth inhibition and cytotoxicity screen, Ovarian Cancer panel; conditions: Homo sapiens; for GI50: IGROV-1; for CC50: IGROV-1, read-out: LC50
SK-MEL-28 = test: NCI growth inhibition and cytotoxicity screen, Melanoma panel; conditions: Homo sapiens; for GI50: SK-MEL-28; for CC50: SK-MEL-28, read-out: LC50
OVCAR-5 = test: NCI growth inhibition and cytotoxicity screen, Ovarian Cancer panel; conditions: Homo sapiens; for GI50: OVCAR-5; for CC50: OVCAR-5, read-out: LC50
NCI-H322M = test: NCI growth inhibition and cytotoxicity screen, Lung Cancer panel; conditions: Homo sapiens; for CC50: read-out: LC50
UO-31 = test: NCI growth inhibition and cytotoxicity screen, Renal Cancer panel; conditions: Homo sapiens; for GI50: UO-31; for CC50: UO-31, read-out: LC50
MOLT-4 = test: NCI growth inhibition and cytotoxicity screen, Leukemia panel; conditions: Homo sapiens; for GI50: MOLT-4; for CC50: MOLT-4, read-out: LC50
MALME-3M = test: NCI growth inhibition and cytotoxicity screen, Melanoma panel; conditions: Homo sapiens
SK-MEL-2 = test: as above; conditions: Homo sapiens; for GI50: SK-MEL-2; for CC50: SK-MEL-2, read-out: LC50
MDA-MB-435 = test: as above; conditions: Homo sapiens; for GI50: MDA-MB-435; for CC50: MDA-MB-435, read-out: LC50
HT29 = test: NCI growth inhibition and cytotoxicity screen, Colon Cancer panel; conditions: Homo sapiens; for GI50: HT-29; for CC50: HT-29, read-out: LC50
LOX-IMVI = test: NCI growth inhibition and cytotoxicity screen, Melanoma panel; conditions: Homo sapiens; for CC50: read-out: LC50
RPMI-8226 = test: NCI growth inhibition and cytotoxicity screen, Leukemia panel; conditions: Homo sapiens; for GI50: RPMI-8226; for CC50: RPMI-8226, read-out: LC50
TK-10 = test: NCI growth inhibition and cytotoxicity screen, Renal Cancer panel; conditions: Homo sapiens; for GI50: TK-10; for CC50: TK-10, read-out: LC50
A498 = test: as above; conditions: Homo sapiens; for GI50: A498; for CC50: A498, read-out: LC50
OVCAR-3 = test: cells; conditions: Homo sapiens; for GI50: OVCAR-3; for CC50: OVCAR-3, read-out: LC50
NCI-H226 = test: NCI growth inhibition and cytotoxicity screen, Lung Cancer panel; conditions: Homo sapiens; for GI50: NCI-H226; for CC50: NCI-H226, read-out: LC50
NCI/ADR-RES = test: NCI growth inhibition and cytotoxicity screen, Ovarian Cancer panel; conditions: Homo sapiens; for CC50: read-out: LC50
CCRF-CEM = test: NCI growth inhibition and cytotoxicity screen, Leukemia panel; conditions: Homo sapiens; for CC50: read-out: LC50
NCI-H23 = test: NCI growth inhibition and cytotoxicity screen, Lung Cancer panel; conditions: Homo sapiens; for GI50: NCI-H23; for CC50: NCI-H23, read-out: LC50
CAKI-1 = test: NCI growth inhibition and cytotoxicity screen, Renal Cancer panel; conditions: Homo sapiens; for GI50: CAKI-1; for CC50: CAKI-1, read-out: LC50
ACHN = test: as above; conditions: Homo sapiens; for CC50: read-out: LC50
SF-295 = test: NCI growth inhibition and cytotoxicity screen, CNS Cancer panel; type: cell-based; conditions: Homo sapiens, Table 2, cell line SF-295 (CNS Cancer)

COc1cc(/C(C#N)=C\c2cc3ccccc3s2)cc(OC)c1OC [Formula (I)(a)]
GI50 (K-562): < 10 nM
CC50 (K-562): > 100000 nM
GI50 (HL-60(TB)): < 10 nM
CC50 (HL-60(TB)): > 100000 nM
GI50 (MDA-MB-231/ATCC): < 10 nM
CC50 (MDA-MB-231/ATCC): > 100000 nM
GI50 (SF-539): < 10 nM
CC50 (SF-539): > 100000 nM
GI50 (786-0): < 10 nM
CC50 (786-0): > 100000 nM
GI50 (COLO 205): < 10 nM
CC50 (COLO 205): 250 nM
GI50 (MCF7): < 10 nM
CC50 (MCF7): > 100000 nM
GI50 (BT-549): < 10 nM
CC50 (BT-549): > 100000 nM
GI50 (T-47D): < 10 nM
CC50 (T-47D): > 100000 nM
GI50 (KM12): < 10 nM
CC50 (KM12): > 100000 nM
GI50 (IGROV1): < 10 nM
CC50 (IGROV1): > 100000 nM
GI50 (SK-MEL-28): < 10 nM
CC50 (SK-MEL-28): > 100000 nM
GI50 (OVCAR-5): < 10 nM
CC50 (OVCAR-5): > 100000 nM
GI50 (NCI-H322M): 18.3 nM
CC50 (NCI-H322M): > 100000 nM
GI50 (UO-31): < 10 nM
CC50 (UO-31): > 100000 nM
GI50 (MOLT-4): < 10 nM
CC50 (MOLT-4): > 100000 nM
GI50 (MALME-3M): < 10 nM
CC50 (MALME-3M; read-out: LC50): > 100000 nM
GI50 (SK-MEL-2): < 10 nM
CC50 (SK-MEL-2): > 100000 nM
GI50 (MDA-MB-435): < 10 nM
CC50 (MDA-MB-435): > 100000 nM
GI50 (HT29): < 10 nM
CC50 (HT29): > 100000 nM
GI50 (LOX-IMVI): < 10 nM
CC50 (LOX-IMVI): > 100000 nM
GI50 (RPMI-8226): < 10 nM
CC50 (RPMI-8226): > 100000 nM
GI50 (TK-10): < 10 nM
CC50 (TK-10): > 100000 nM
GI50 (A498): < 10 nM
CC50 (A498): > 100000 nM
GI50 (OVCAR-3): < 10 nM
CC50 (OVCAR-3): > 100000 nM
GI50 (NCI-H226): 17.9 nM
CC50 (NCI-H226): > 100000 nM
GI50 (NCI/ADR-RES): < 10 nM
CC50 (NCI/ADR-RES): > 100000 nM
GI50 (CCRF-CEM): < 10 nM
CC50 (CCRF-CEM): > 100000 nM
GI50 (NCI-H23): < 10 nM
CC50 (NCI-H23): > 100000 nM
GI50 (CAKI-1): 37.8 nM
CC50 (CAKI-1): > 100000 nM
GI50 (ACHN): < 10 nM
CC50 (ACHN): > 100000 nM

COc1cc(/C(C#N)=C/c2ccc3ccccc3n2)cc(OC)c1OC [PNR-4-90, (Z)-3-(quinolin-2-yl)-2-(3,4,5-trimethoxyphenyl)acrylonitrile]
GI50 (K-562): 80 nM
CC50 (K-562): > 100000 nM
GI50 (HL-60(TB)): 223 nM
CC50 (HL-60(TB)): > 100000 nM
GI50 (MDA-MB-231/ATCC): 943 nM
CC50 (MDA-MB-231/ATCC): > 100000 nM
GI50 (SF-539): 197 nM
CC50 (SF-539): 14900 nM
GI50 (786-0): 445 nM
CC50 (786-0): > 100000 nM
GI50 (COLO 205): 198 nM
CC50 (COLO 205): 32700 nM
GI50 (MCF7): 275 nM
CC50 (MCF7): > 100000 nM
GI50 (BT-549): 315 nM
CC50 (BT-549): > 100000 nM
GI50 (T-47D): 4760 nM
CC50 (T-47D): > 100000 nM
GI50 (KM12): 350 nM
CC50 (KM12): > 100000 nM
GI50 (IGROV1): 846 nM
CC50 (IGROV1): > 100000 nM
GI50 (SK-MEL-28): 518 nM
CC50 (SK-MEL-28): > 100000 nM
GI50 (OVCAR-5): 580 nM
CC50 (OVCAR-5): > 100000 nM
GI50 (NCI-H322M): 718 nM
CC50 (NCI-H322M): > 100000 nM
GI50 (UO-31): 762 nM
CC50 (UO-31): > 100000 nM
GI50 (MOLT-4): 488 nM
CC50 (MOLT-4): > 100000 nM
GI50 (SK-MEL-2): 483 nM
CC50 (SK-MEL-2): > 100000 nM
GI50 (MDA-MB-435): 33 nM
CC50 (MDA-MB-435): 60000 nM
GI50 (HT29): 240 nM
CC50 (HT29): > 100000 nM
GI50 (LOX-IMVI): 766 nM
CC50 (LOX-IMVI): > 100000 nM
GI50 (RPMI-8226): 297 nM
CC50 (RPMI-8226): > 100000 nM
GI50 (TK-10): 4690 nM
CC50 (TK-10): > 100000 nM
GI50 (A498): 295 nM
CC50 (A498): > 100000 nM
GI50 (OVCAR-3): 163 nM
CC50 (OVCAR-3): 54900 nM
GI50 (NCI-H226): 4780 nM
CC50 (NCI-H226): > 100000 nM
GI50 (NCI/ADR-RES): 112 nM
CC50 (NCI/ADR-RES): > 100000 nM
GI50 (CCRF-CEM): 248 nM
CC50 (CCRF-CEM): > 100000 nM
GI50 (SF-295): 277 nM
CC50 (SF-295; read-out: LC50 (the source's name)): > 100000 nM
GI50 (NCI-H23): 751 nM
CC50 (NCI-H23): > 100000 nM
GI50 (CAKI-1): 68 nM
CC50 (CAKI-1): > 100000 nM
GI50 (ACHN): 1040 nM
CC50 (ACHN): > 100000 nM
